# pIC50: −log10 of the molar value.
# Experiments:
# Helicobacter pylori [1] = experiment: Agar dilution test (inhibition of growth in vitro on agar plates); type: cell-based; conditions: Columbia agar (Oxoid), growth period of 4 days; for MIC50: Helicobacter pylori, 96 h, read-out: approx. MIC50
# Helicobacter pylori [2] = experiment: Helicobacter pylori eradication rate in vivo (urease test); conditions: infected gerbils, 50 mg/kg by tube, 3 × daily, 4 days; urease test of antrum tissue four weeks after last treatment
# Description: Determination of the Helicobacter Pylori Eradication Rate in Vivo
# Gerbils were infected on days 1, 3, and 5 with a suspension containing 108-109 Helicobacter pylori bacteria per animal. […] Beginning on day 36, the gerbils were treated on four successive days—three times daily at 07.30, 11.30, and 15.00 hours—with a placebo or the test substance, using a tube. Four weeks after the last treatment, the gerbils were sacrificed using CO2. A tissue sample of the antrum was introduced into the urease test solution and incubated at 37° C. for 24 hours. Changes in color of the solution from yellow to violet, which resulted from the increase in pH caused by the formation of NH3 from the urease, were detected. The eradication rate was calculated as the percentage of animals whose stomach tissue sample gave a negative urease test.
# Conditions Under Which the Animals Were Kept:
# Groups of 5-10 gerbils per cage (type IV Macrolon cage) were kept at an ambient temperature of 23±2° C. and a relative humidity of 50±10%. They were fed ad libitum with NAFAG feed No. 9439 for rats and mice (NAFAG AG, CH-2900, Gosseu, Switzerland) and had free access to mains water during the experiment.
# The substances administered are referenced in table C below using numbers which correspond to the numbers of the compounds in the examples.
# Helicobacter pylori [3] = experiment: Inhibition of growth in vitro in liquid culture (NanoOrange fluorescence); type: cell-based; conditions: BHI/6% FCS medium, 24 hours, 37° C., microaerobic, 1% DMSO
# Description: (§1) Determination of the Inhibition of Growth in Vitro in Liquid Culture
# (§2) The principle of the technique is based on the detection of the multiplication of, for example, Helicobacter pylori in liquid culture using BHI/6% FCS medium. The method ensures linear fluorescence increase in the range from […].
# (§3) The bacterial culture was distributed with an initial density of 1-3×10^8 microbes/ml in a 96-well MTP in 100 μl aliquots. The test substances in a concentration of […] in a final concentration of 1% DMSO were added to these minicultures. These MTPs were then incubated under microaerobic conditions (Anaerokult, Merck) and with shaking at 37° C. for 24 hours. Following the 24-hour incubation, the minicultures were transferred to filter MTPs and washed twice with isotonic buffer (filtered off with suction, taken up, shaken) and finally were taken up in double-distilled water and shaken, and an aliquot was transferred to a new MTP. This aliquot was admixed with the fluorescent dye NanoOrange (Molecular Probes) in accordance with the manufacturer's instructions. Development of protein detection took piece at 90° C. in a pressure-secured sandwich technique. After the plates had cooled, the fluorescence was measured on a plate reader at 549 nm. […] This calculation was made using origin, sigmoidal curve adaptation by means of the ‘logistic’ algorithm.
# E. coli = experiment: as above; type: cell-based; conditions: Escherichia coli, 24 hours incubation
# Description: as §1, §2, §3
Compound,melting point [°C],MIC50 (Helicobacter pylori [1]) [µg/mL],Eradication rate (Helicobacter pylori [2]) [%],further results
"Cc1nc(C)c(Cl)c(NCc2cc(O)cc(Oc3ccc4ncc([N+](=O)[O-])n4n3)c2)n1 [Compound 14, 3-[(5-Chloro-2,6-dimethylpyrimidin-4-ylamino)methyl]-5-(3-nitroimidazo[1,2-b]pyridazin-6-yloxy)phenol]",263,~0.01,,
"COc1cc(CNc2nc(C)nc(C)c2Cl)cc(Br)c1Oc1ccc2ncc([N+](=O)[O-])n2n1 [Compound 16, [3-Bromo-5-methoxy-4-(3-nitroimidazo[1,2-b]pyridazin-6-yloxy)benzyl](5-chloro-2,6-dimethyl-pyrimidin-4-yl)amine]",230 to 234,,100,
"(5-Chloro-2,6-dimethylpyrimidin-4-yl)[4-methoxy-3-nitroimidazo[1,2-b]pyridazin-6-yloxy)-benzyl]amino [Compound 5]",,,,approx. MIC50 (Helicobacter pylori [1]): ~0.05 µg/mL
"Cc1nc(C)c(Cl)c(NCc2cc(Oc3ccc4ncc([N+](=O)[O-])n4n3)ccc2F)n1 [Compound 15, (5-Chloro-2,6-dimethylpyrimidin-4-yl)[2-fluoro-5-(3-nitroimidazo[1,2-b]pyridazin-6-yloxy)-benzyl]amine]",,~0.001,,
"Cc1nc(C)c(Cl)c(NCc2ccc(Oc3ccc4ncc([N+](=O)[O-])n4n3)cc2)n1 [Compound 1, (5-Chloro-2,6-dimethylpyrimidin-4-yl)[4-(3-nitroimidazo[1,2-b]pyridazin-6-yloxy)benzyl]amine]",203,~0.005,100,pIC50 (Helicobacter pylori [3]): 7.59; pIC50 (E. coli): < 6.00
"Cc1nc(C)c(Cl)c(NCc2ccc(Oc3ccc4ncc([N+](=O)[O-])n4n3)cc2F)n1 [Compound 11, (5-Chloro-2,6-dimethylpyrimidin-4-yl)[2-fluoro-4-(3-nitroimidazo[1,2-b]pyridazin-6-yloxy)-benzyl]amine]",147 to 149,~0.01,100,
"Cc1nc(C)c(Cl)c(NCc2ccc(Oc3ccc4ncc([N+](=O)[O-])n4n3)c(F)c2)n1 [Compound 10, (5-Chloro-2,6-dimethylpyrimidin-4-yl)[3-fluoro-4-(3-nitroimidazo[1,2-b]pyridazin-6-yloxy)-benzyl]amine]",193 to 196,~0.01,100,
"Cc1nc(C)c(Cl)c(NCc2ccc(Oc3ccc4ncc([N+](=O)[O-])n4n3)c(OC(F)F)c2)n1 [Compound 8, (5-Chloro-2,6-dimethylpyrimidin-4-yl)[3-(1,1-difluoromethoxy)-4-(3-nitroimidazo[1,2-b]pyridazin-6-yloxy)benzyl]amine]",191 to 193.5,~0.01,100,
"Cc1nc(C)c(Cl)c(NCc2ccc(Oc3ccc4ncc([N+](=O)[O-])n4n3)c(OCC(F)(F)F)c2)n1 [Compound 12, (5-Chloro-2,6-dimethylpyrimidin-4-yl)[4-(3-nitroimidazo[1,2-b]pyridazin-6-yloxy)-3-(2,2,2-trifluoroethoxy)benzyl]amine]",185 to 188,~0.01,,
"O=[N+]([O-])c1cnc2ccc(Oc3ccc(CNc4ncncc4Cl)cc3)nn12 [Compound 17, (5-Chloro-pyrimidin-4-yl)-[4-(3-nitro-imidazo[1,2-b]pyridazin-6-yloxy)-benzyl]-amine]",185,,,
"Cc1nc(C)c(Cl)c(NCc2ccc(Oc3ccc4ncc([N+](=O)[O-])n4n3)c(OCC3CC3)c2)n1 [Compound 6, (5-Chloro-2,6-dimethylpyrimidin-4-yl)[3-cyclopropylmethoxy-4-(3-nitroimidazo[1,2-b]pyridazin-6-yloxy)benzyl]amine]",178 to 180,,,
"Cc1nc(C)c(Cl)c(NCc2ccc(Oc3ccc4ncc([N+](=O)[O-])n4n3)c(O)c2)n1 [Compound 18, (5-Chloro-2,6-dimethyl-pyrimidin-4-yl)-[4-(3-nitro-imidazo[1,2-b]pyridazin-6-yloxy)-5-hydroxy-benzyl]-amine]",> 114,,,
"COc1cc(CNc2nc(C)nc(C)c2Cl)ccc1Oc1ccc2ncc([N+](=O)[O-])n2n1 [Compound 4, (5-Chloro-2,6-dimethylpyrimidin-4-yl)[3-methoxy-4-(3-nitroimidazo[1,2-b]pyridazin-6-yloxy)-benzyl]amine]",229 to 232,~0.001,100,
"Cc1nc(C)c(Cl)c(NCc2ccc(Oc3ccc4ncc([N+](=O)[O-])n4n3)c(C)c2)n1 [Compound 9, (5-Chloro-2,6-dimethylpyrimidin-4-yl)[3-methyl-4-(3-nitroimidazo[1,2-b]pyridazin-6-yloxy)-benzyl]amine]",183 to 185,~0.001,,
"Cc1nc(C)c(Cl)c(NCc2cccc(Oc3ccc4ncc([N+](=O)[O-])n4n3)c2)n1 [Compound 3, (5-Chloro-2,6-dimethylpyrimidin-4-yl)[3-(3-nitroimidazo[1,2-b]pyridazin-6-yloxy)benzyl]-amine]",222 to 223,~0.05,,
"COc1cc(CNc2nc(C)nc(C)c2Cl)cc(Oc2ccc3ncc([N+](=O)[O-])n3n2)c1 [Compound 13, (5-Chloro-2,6-dimethylpyrimidin-4-yl)[3-methoxy-5-(3-nitroimidazo[1,2-b]pyridazin-6-yloxy)-benzyl]amine]",198 to 199,,,

# Source: patent publication US6818642B2, “Benzylaminopyrimidines” (Altana Pharma AG, priority 2001, dated 2004)
